What was measured:
Hepatitis C virus = settings: alone or in combination with ribavirin; cited from earlier work
CHO cells = experiment: Liposome uptake (Rh-PE) and intracellular calcein dequenching; assay type: cell-based, Chinese hamster
Experimental: The effects of different DNJ compounds on the cellular uptake and intracellular release, when encapsulated inside DCPP liposomes, was determined by diluting compounds in 80-mM calcein and incorporating Rh-PE in liposome membranes as previously described, with the final liposome composition being DOPE:CHEMS:PEG-PE:Rh-PE (DCPP-Rh, 6:4:0.3:0.1) Liposomes encapsulating calcein alone, 10-μM DNJ, 1-mM DNJ, 10-μM NB-DNJ, 1-mM NB-DNJ, 10-μM NN-DNJ, or 1-mM NN-DNJ, were incubated with CHO cells for 45 min before liposomes were removed and cells were washed twice in 1×PBS. Cells were then analyzed in a fluorometer to measure calcein dequenching (λex=490 and λem=520 nm) and rhodamine fluorescence (λex=584 and λem=612 nm). Data represent the mean±S.D. obtained from triplicates of four independent experiments, where mean rhodamine fluorescence values reflect the binding and uptake of liposomes and the mean calcein fluorescence reflects the intracellular dequenching of the dye (i.e. dye released from liposomes into intracellular compartments). Results are expressed as the percent fluorescence measured following incubation with DNJ-containing liposomes as compared to the calcein/PBS-only liposome control (=100% on the x axis).
The calculated ratio of calcein to rhodamine fluorescence is taken as a measure of the amount of aqueous marker released per cell-associated liposome, and represents the efficiency of intracellular delivery.

[1] = pH sensitivity of DCPP liposomes (calcein leakage); assay type: physicochemical; settings: 1 mM encapsulated, pH 5.0-7.4, vs calcein only liposomes
Experimental: DCPP liposomes encapsulating 1-mM DNJ, NB-DNJ, or NN-DNJ in 80-mM calcein buffer were compared with empty (calcein only) liposomes to determine the effects of the alkyl chain of NB-DNJ and NN-DNJ on the pH-sensitivity. 10 μl of calcein-loaded DCPP liposomes (final phospholipid concentration, 5 μM) was added to 2 ml of MES-buffered saline at various pH values ranging from 5.0-7.4, and left to incubate with shaking 15 min at 37° C. Following incubation, calcein fluorescence was measured before and after the addition of Triton to a final concentration of 0.1%. Fluorescence intensities obtained at acidic pH values were corrected for the slight effect of pH on calcein fluorescence. The percentage of calcein release at each pH was calculated using the formula: % leakage=((in−I0)/(I100−I0))×100, where I0 is the fluorescence at neutral pH, In is the corrected intensity at acidic pH before the addition of Triton, and I100 is the total dequenched calcein at neutral pH.

[2] = encapsulated into DCPP liposomes
[3] = 10 μM encapsulated in DCPP liposomes
[4] = 1 mM encapsulated in DCPP liposomes
[5] = encapsulated in DCPP-Rh liposomes

pH sensitivity / stability of DCPP liposomes [1]	Molecule	patients in whom therapy is effective (Hepatitis C virus)	Efficiency (calcein/rhodamine, AU) (CHO cells; [3])	Efficiency (calcein/rhodamine, AU) (CHO cells; [4])	cellular uptake of liposomes (CHO cells; [5])	effect on calcein dequenching (intracellular release) (CHO cells; [5])	change of ER delivery of the peptide [2]
–	interferon	up to 80%	–	–	–	–	–
significant decrease in pH sensitivity	CCCCCCCCCN1C[C@H](O)[C@@H](O)[C@H](O)[C@H]1CO [NN-DNJ, N-nonyl deoxynojirimycin]	–	4.4 ± 1.3 AU	3.2 ± 1.1 AU	increase in cellular uptake	no effect	–
no difference in stability	OC[C@H]1NC[C@H](O)[C@@H](O)[C@@H]1O [DNJ, deoxynojirimycin]	–	10.4 ± 1.8 AU	10.8 ± 2.0 AU	–	no effect	–
–	CSCC[C@H](NC(=O)[C@@H](NC(=O)CNC(=O)[C@H](CC(=O)O)NC(=O)[C@H](CCSC)NC(=O)[C@@H](N)Cc1ccc(O)cc1)[C@@H](C)O)C(=O)N[C@@H](CO)C(=O)N[C@@H](CCC(N)=O)C(=O)N[C@H](C(=O)O)C(C)C [YMDGTMSQV]	–	–	–	–	–	reduces the ER delivery of the peptide by an order of magnitude

Source: patent US20110182982A1, “LIPOSOME TREATMENT OF VIRAL INFECTIONS” (University of Oxford, priority 2006, published 2011)
